Assays:
[1] = Au(I)-mediated imine macrocyclisation (JohnPhosAu(MeCN)SbF6 2 equiv, Et4NBr 16 equiv) then in situ NaBH4 reduction to cyclic amine, HPLC isolation; settings: the molecule shown is the open-chain precursor, DMF, 8.0 mM, 37.0 °C, 2 steps
[2] = Au(I)-mediated imine macrocyclisation: N-terminal amine adds (Markovnikov) to N-propargyl backbone amide alkyne; JohnPhosAu(MeCN)SbF6 2 equiv, Et4NBr 16 equiv; in situ NaBH4 10 equiv reduction 15 min for quantification; settings: DMF, 8.0 mM, 37.0 °C

C#CCN(CC(N)=O)C(=O)CNC(=O)[C@H](C)NC(=O)[C@H](CO)NC(=O)[C@H](Cc1ccc(O)cc1)NC(=O)[C@H](CC(C)C)NC(=O)CNC(=O)[C@@H](N)Cc1ccccc1 [H-Phe-Gly-Leu-Tyr-Ser-Ala-Gly-(N-propargyl)Gly-NH2]
ring closure, yield over several steps ([1]; 24-membered ring, 1.0 h): 60%

C#CCN(CC(N)=O)C(=O)[C@@H](NC(=O)[C@H](C)NC(=O)[C@H](CCCNC(=N)N)NC(=O)[C@H](Cc1ccc(O)cc1)NC(=O)[C@H](CC(C)C)NC(=O)CNC(=O)[C@@H](N)Cc1ccccc1)[C@@H](C)CC [H-Phe-Gly-Leu-Tyr-Arg-Ala-Ile-(N-propargyl)Gly-NH2]
ring closure, yield over several steps ([1]; 24-membered ring, 1.0 h): 66%

C#CCN(CC(N)=O)C(=O)CNC(=O)[C@H](C)NC(=O)[C@H](CCCNC(=N)N)NC(=O)[C@H](Cc1ccc(O)cc1)NC(=O)[C@H](CC(C)C)NC(=O)CNC(=O)[C@@H](N)Cc1c[nH]c2ccccc12 [H-Trp-Gly-Leu-Tyr-Arg-Ala-Gly-(N-propargyl)Gly-NH2]
ring closure, yield over several steps ([1]; 24-membered ring, 1.0 h): 74%

CC(C)C[C@@H]1NC(=O)CNC(C)CN(CC(N)=O)C(=O)CNC(=O)CNC(=O)CNC(=O)[C@H](C)NC(=O)[C@H](CCCNC(=N)N)NC(=O)[C@H](Cc2ccc(O)cc2)NC(=O)[C@H](CC(C)C)NC(=O)[C@H](Cc2ccccc2)NC(=O)[C@H](C)NC(=O)[C@H](CCCNC(=N)N)NC(=O)[C@H](Cc2ccc(O)cc2)NC1=O (stereo partly shown)
ring closure, conversion by HPLC ([2]; from C#CCN(CC(N)=O)C(=O)CNC(=O)CNC(=O)CNC(=O)[C@H](C)NC(=O)[C@H](CCCNC(=N)N)NC(=O)[C@H](Cc1ccc(O)cc1)NC(=O)[C@H](CC(C)C)NC(=O)[C@H](Cc1ccccc1)NC(=O)[C@H](C)NC(=O)[C@H](CCCNC(=N)N)NC(=O)[C@H](Cc1ccc(O)cc1)NC(=O)[C@H](CC(C)C)NC(=O)CN, 42-membered ring, 1.0 h): 90%

CC(C)C[C@@H]1NC(=O)CNC(C)CN(CC(N)=O)C(=O)CNC(=O)[C@H](C)NC(=O)[C@H](Cc2ccc(O)cc2)NC1=O (stereo partly drawn) [H-Gly-Leu-Tyr-Ala-Gly-(N-propargyl)Gly-NH2]
ring closure, conversion by HPLC ([2]; from C#CCN(CC(N)=O)C(=O)CNC(=O)[C@H](C)NC(=O)[C@H](Cc1ccc(O)cc1)NC(=O)[C@H](CC(C)C)NC(=O)CN, 18-membered ring, 0.5 h): 79%

CC[C@H](C)[C@@H]1NC(=O)[C@H](C)NC(=O)[C@H](CCCNC(=N)N)NC(=O)[C@H](Cc2ccc(O)cc2)NC(=O)[C@H](CC(C)C)NC(=O)CNC(=O)[C@H](Cc2ccccc2)NC(C)CN(CC(N)=O)C1=O (stereo partly drawn) [H-Phe-Gly-Leu-Tyr-Arg-Ala-Ile-(N-propargyl)Gly-NH2]
ring closure, conversion by HPLC ([2]; from C#CCN(CC(N)=O)C(=O)[C@@H](NC(=O)[C@H](C)NC(=O)[C@H](CCCNC(=N)N)NC(=O)[C@H](Cc1ccc(O)cc1)NC(=O)[C@H](CC(C)C)NC(=O)CNC(=O)[C@@H](N)Cc1ccccc1)[C@@H](C)CC, 24-membered ring, 1.0 h): 89%

C#CCN(CC(N)=O)C(=O)CNC(=O)[C@H](C)NC(=O)[C@H](CCCNC(=N)N)NC(=O)[C@H](Cc1ccc(O)cc1)NC(=O)[C@H](CC(C)C)NC(=O)[C@H](CCCCN)NC(=O)CNC(=O)OCC1c2ccccc2-c2ccccc21 [Fmoc-Gly-Lys-Leu-Tyr-Arg-Ala-Gly-(N-propargyl)Gly-NH2]
ring closure, yield over several steps ([1]; 25-membered ring, 1.0 h): 61%

CC(C)C[C@@H]1NC(=O)CNC(=O)[C@H](Cc2ccccc2)NC(C)CN(CC(N)=O)C(=O)CNC(=O)[C@H](C)NC(=O)[C@H](CCC(=O)O)NC(=O)[C@H](Cc2ccc(O)cc2)NC1=O (stereo partly drawn) [H-Phe-Gly-Leu-Tyr-Glu-Ala-Gly-(N-propargyl)Gly-NH2]
ring closure, conversion by HPLC ([2]; from C#CCN(CC(N)=O)C(=O)CNC(=O)[C@H](C)NC(=O)[C@H](CCC(=O)O)NC(=O)[C@H](Cc1ccc(O)cc1)NC(=O)[C@H](CC(C)C)NC(=O)CNC(=O)[C@@H](N)Cc1ccccc1, 24-membered ring, 1.0 h): 83%

CC[C@H](C)[C@@H]1NC(C)CN(CC(N)=O)C(=O)CNC(=O)[C@H](C)NC(=O)[C@H](CCCNC(=N)N)NC(=O)[C@H](Cc2ccc(O)cc2)NC(=O)[C@H](CC(C)C)NC(=O)CNC1=O (stereo partly drawn) [H-Ile-Gly-Leu-Tyr-Arg-Ala-Gly-(N-propargyl)Gly-NH2]
ring closure, conversion by HPLC ([2]; from C#CCN(CC(N)=O)C(=O)CNC(=O)[C@H](C)NC(=O)[C@H](CCCNC(=N)N)NC(=O)[C@H](Cc1ccc(O)cc1)NC(=O)[C@H](CC(C)C)NC(=O)CNC(=O)[C@@H](N)[C@@H](C)CC, 24-membered ring, 1.0 h): 76%

CC(C)C[C@@H]1NC(=O)CNC(=O)CNC(=O)CNC(C)CN(CC(N)=O)C(=O)CNC(=O)[C@H](C)NC(=O)[C@H](CCCNC(=N)N)NC(=O)[C@H](Cc2ccc(O)cc2)NC1=O (stereo partly drawn) [H-Gly-Gly-Gly-Leu-Tyr-Arg-Ala-Gly-(N-propargyl)Gly-NH2]
ring closure, conversion by HPLC ([2]; from C#CCN(CC(N)=O)C(=O)CNC(=O)[C@H](C)NC(=O)[C@H](CCCNC(=N)N)NC(=O)[C@H](Cc1ccc(O)cc1)NC(=O)[C@H](CC(C)C)NC(=O)CNC(=O)CNC(=O)CN, 27-membered ring, 0.5 h): 91%

C#CCN(CC(N)=O)C(=O)CNC(=O)[C@H](C)NC(=O)[C@H](CCCNC(=N)N)NC(=O)[C@H](Cc1ccc(O)cc1)NC(=O)[C@H](CC(C)C)NC(=O)CNC(=O)[C@@H](N)Cc1ccccc1 [H-Phe-Gly-Leu-Tyr-Arg-Ala-Gly-(N-propargyl)Gly-NH2]
ring closure, yield over several steps ([1]; 24-membered ring, 0.5 h): 75%

CC(C)C[C@@H]1NC(=O)CNC(=O)[C@H](Cc2ccccc2)NC(C)CN([C@@H](CC(=O)O)C(N)=O)C(=O)CNC(=O)[C@H](C)NC(=O)[C@H](CCCNC(=N)N)NC(=O)[C@H](Cc2ccc(O)cc2)NC1=O (stereo partly drawn) [H-Phe-Gly-Leu-Tyr-Arg-Ala-Gly-(N-propargyl)Asp-NH2]
ring closure, conversion by HPLC ([2]; from C#CCN(C(=O)CNC(=O)[C@H](C)NC(=O)[C@H](CCCNC(=N)N)NC(=O)[C@H](Cc1ccc(O)cc1)NC(=O)[C@H](CC(C)C)NC(=O)CNC(=O)[C@@H](N)Cc1ccccc1)[C@@H](CC(=O)O)C(N)=O, 24-membered ring, 1.0 h): 56%

CC(C)C[C@@H]1NC(=O)CNC(=O)[C@H](CO)NC(C)CN(CC(N)=O)C(=O)CNC(=O)[C@H](C)NC(=O)[C@H](CCCNC(=N)N)NC(=O)[C@H](Cc2ccc(O)cc2)NC1=O (stereo partly drawn) [H-Ser-Gly-Leu-Tyr-Arg-Ala-Gly-(N-propargyl)Gly-NH2]
ring closure, conversion by HPLC ([2]; from C#CCN(CC(N)=O)C(=O)CNC(=O)[C@H](C)NC(=O)[C@H](CCCNC(=N)N)NC(=O)[C@H](Cc1ccc(O)cc1)NC(=O)[C@H](CC(C)C)NC(=O)CNC(=O)[C@@H](N)CO, 24-membered ring, 1.0 h): 75%

CC(C)C[C@@H]1NC(=O)CNC(=O)[C@H](CCCNC(=N)N)NC(C)CN(CC(N)=O)C(=O)CNC(=O)[C@H](C)NC(=O)[C@H](CCCNC(=N)N)NC(=O)[C@H](Cc2ccc(O)cc2)NC1=O (stereo partly drawn) [H-Arg-Gly-Leu-Tyr-Arg-Ala-Gly-(N-propargyl)Gly-NH2]
ring closure, conversion by HPLC ([2]; from C#CCN(CC(N)=O)C(=O)CNC(=O)[C@H](C)NC(=O)[C@H](CCCNC(=N)N)NC(=O)[C@H](Cc1ccc(O)cc1)NC(=O)[C@H](CC(C)C)NC(=O)CNC(=O)[C@@H](N)CCCNC(=N)N, 24-membered ring, 1.0 h): 83%

CC(=O)NCSC[C@@H]1NC(=O)[C@H](Cc2ccc(O)cc2)NC(=O)[C@H](CC(C)C)NC(=O)CNC(C)CN(CC(N)=O)C(=O)CNC(=O)[C@H](C)NC1=O (stereo partly drawn) [H-Gly-Leu-Tyr-Cys(Acm)-Ala-Gly-(N-propargyl)Gly-NH2]
ring closure, conversion by HPLC ([2]; from C#CCN(CC(N)=O)C(=O)CNC(=O)[C@H](C)NC(=O)[C@H](CSCNC(C)=O)NC(=O)[C@H](Cc1ccc(O)cc1)NC(=O)[C@H](CC(C)C)NC(=O)CN, 21-membered ring, 0.5 h): 82%

CC(C)C[C@@H]1NC(=O)CNC(=O)[C@H](Cc2ccccc2)NC(C)CN(CC(N)=O)C(=O)CNC(=O)[C@H](C)NC(=O)[C@H](CCCNC(=N)N)NC(=O)[C@H](Cc2ccc(O)cc2)NC1=O (stereo partly drawn) [H-Phe-Gly-Leu-Tyr-Arg-Ala-Gly-(N-propargyl)Gly-NH2]
ring closure, conversion by HPLC ([2]; from C#CCN(CC(N)=O)C(=O)CNC(=O)[C@H](C)NC(=O)[C@H](CCCNC(=N)N)NC(=O)[C@H](Cc1ccc(O)cc1)NC(=O)[C@H](CC(C)C)NC(=O)CNC(=O)[C@@H](N)Cc1ccccc1, 24-membered ring, 0.5 h): 85%

CC(C)C[C@@H]1NC(=O)CNC(=O)[C@H](Cc2ccccc2)NC(C)CN(CC(N)=O)C(=O)CNC(=O)[C@H](C)NC(=O)[C@@H]2CCCN2C(=O)[C@H](Cc2ccc(O)cc2)NC1=O (stereo partly drawn) [H-Phe-Gly-Leu-Tyr-Pro-Ala-Gly-(N-propargyl)Gly-NH2]
ring closure, conversion by HPLC ([2]; from C#CCN(CC(N)=O)C(=O)CNC(=O)[C@H](C)NC(=O)[C@@H]1CCCN1C(=O)[C@H](Cc1ccc(O)cc1)NC(=O)[C@H](CC(C)C)NC(=O)CNC(=O)[C@@H](N)Cc1ccccc1, 24-membered ring, 1.0 h): 77%

CC(C)C[C@@H]1NC(=O)CNC(=O)[C@H](Cc2c[nH]cn2)NC(C)CN(CC(N)=O)C(=O)CNC(=O)[C@H](C)NC(=O)[C@H](CCCNC(=N)N)NC(=O)[C@H](Cc2ccc(O)cc2)NC1=O (stereo partly drawn) [H-His-Gly-Leu-Tyr-Arg-Ala-Gly-(N-propargyl)Gly-NH2]
ring closure, conversion by HPLC ([2]; from C#CCN(CC(N)=O)C(=O)CNC(=O)[C@H](C)NC(=O)[C@H](CCCNC(=N)N)NC(=O)[C@H](Cc1ccc(O)cc1)NC(=O)[C@H](CC(C)C)NC(=O)CNC(=O)[C@@H](N)Cc1c[nH]cn1, 24-membered ring, 1.0 h): 90%

CC(C)C[C@@H]1NC(=O)CNC(=O)[C@H](Cc2ccccc2)NC(C)CN(CC(N)=O)C(=O)CNC(=O)[C@H](C)NC(=O)[C@H](CO)NC(=O)[C@H](Cc2ccc(O)cc2)NC1=O (stereo partly drawn) [H-Phe-Gly-Leu-Tyr-Ser-Ala-Gly-(N-propargyl)Gly-NH2]
ring closure, conversion by HPLC ([2]; from C#CCN(CC(N)=O)C(=O)CNC(=O)[C@H](C)NC(=O)[C@H](CO)NC(=O)[C@H](Cc1ccc(O)cc1)NC(=O)[C@H](CC(C)C)NC(=O)CNC(=O)[C@@H](N)Cc1ccccc1, 24-membered ring, 1.0 h): 74%

From article PMC8949771, “Gold(I)-Mediated Rapid Cyclization of Propargylated Peptides via Imine Formation” (Journal of the American Chemical Society, 2022)
